Results taken from patent US5869448A, “Cyclic CS-1 peptidomimetics, compositions and methods of using same” (Cytel Corporation, priority 1995, dated 1999).
Positions of bridges follow the written chain, without caps; N, C: chain ends. Non-standard residues stand in square brackets, D forms with d. Residues, ends and D or L forms follow the SMILES beside them. *: point of attachment. Pen = CC(C)(S)[C@H](N)C(=O)O; PhAc = O=C(Cc1ccccc1)*

What follows are compounds tested against T1, VLA-4/CS-1 (Homo sapiens, UniProt P05556+P13612) (assay: In vitro inhibition of binding of 51Cr-labeled Jurkat cells to solid phase-bound CS-1 peptide). Conditions: Table 1; normalized IC50, standard peptide of SEQ ID NO:6 = 1.
T1 construct: inflammatory cells that contain the VLA-4 receptor [Jurkat cells; host or cells: Jurkat (human T lymphoblastic line)
T1 sequence (P13612 34-1032): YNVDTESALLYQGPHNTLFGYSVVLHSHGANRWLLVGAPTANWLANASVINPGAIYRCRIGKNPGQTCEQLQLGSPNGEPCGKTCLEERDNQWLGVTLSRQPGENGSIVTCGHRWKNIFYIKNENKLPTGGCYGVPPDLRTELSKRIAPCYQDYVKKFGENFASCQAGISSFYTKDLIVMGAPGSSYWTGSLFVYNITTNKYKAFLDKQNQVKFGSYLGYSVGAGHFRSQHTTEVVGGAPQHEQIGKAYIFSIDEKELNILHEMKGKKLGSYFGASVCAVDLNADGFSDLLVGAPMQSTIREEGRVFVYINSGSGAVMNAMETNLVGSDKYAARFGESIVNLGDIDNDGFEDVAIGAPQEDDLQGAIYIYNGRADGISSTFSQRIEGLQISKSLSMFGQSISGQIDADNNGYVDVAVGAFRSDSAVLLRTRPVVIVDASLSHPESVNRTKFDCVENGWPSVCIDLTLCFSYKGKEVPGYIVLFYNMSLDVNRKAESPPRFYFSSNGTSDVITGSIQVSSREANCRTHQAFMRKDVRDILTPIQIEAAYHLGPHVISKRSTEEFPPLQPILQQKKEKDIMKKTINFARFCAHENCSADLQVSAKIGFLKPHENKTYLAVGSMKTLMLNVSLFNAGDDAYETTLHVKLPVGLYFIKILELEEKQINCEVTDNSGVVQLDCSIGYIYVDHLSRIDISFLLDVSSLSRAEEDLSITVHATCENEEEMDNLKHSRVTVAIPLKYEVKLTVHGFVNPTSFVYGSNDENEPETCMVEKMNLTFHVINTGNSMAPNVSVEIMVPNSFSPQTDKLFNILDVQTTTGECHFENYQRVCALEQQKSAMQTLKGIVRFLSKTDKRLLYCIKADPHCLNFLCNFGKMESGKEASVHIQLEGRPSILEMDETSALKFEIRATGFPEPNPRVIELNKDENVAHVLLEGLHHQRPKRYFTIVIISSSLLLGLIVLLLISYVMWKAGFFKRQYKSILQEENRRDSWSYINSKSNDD
T1 sequence (P05556 21-798): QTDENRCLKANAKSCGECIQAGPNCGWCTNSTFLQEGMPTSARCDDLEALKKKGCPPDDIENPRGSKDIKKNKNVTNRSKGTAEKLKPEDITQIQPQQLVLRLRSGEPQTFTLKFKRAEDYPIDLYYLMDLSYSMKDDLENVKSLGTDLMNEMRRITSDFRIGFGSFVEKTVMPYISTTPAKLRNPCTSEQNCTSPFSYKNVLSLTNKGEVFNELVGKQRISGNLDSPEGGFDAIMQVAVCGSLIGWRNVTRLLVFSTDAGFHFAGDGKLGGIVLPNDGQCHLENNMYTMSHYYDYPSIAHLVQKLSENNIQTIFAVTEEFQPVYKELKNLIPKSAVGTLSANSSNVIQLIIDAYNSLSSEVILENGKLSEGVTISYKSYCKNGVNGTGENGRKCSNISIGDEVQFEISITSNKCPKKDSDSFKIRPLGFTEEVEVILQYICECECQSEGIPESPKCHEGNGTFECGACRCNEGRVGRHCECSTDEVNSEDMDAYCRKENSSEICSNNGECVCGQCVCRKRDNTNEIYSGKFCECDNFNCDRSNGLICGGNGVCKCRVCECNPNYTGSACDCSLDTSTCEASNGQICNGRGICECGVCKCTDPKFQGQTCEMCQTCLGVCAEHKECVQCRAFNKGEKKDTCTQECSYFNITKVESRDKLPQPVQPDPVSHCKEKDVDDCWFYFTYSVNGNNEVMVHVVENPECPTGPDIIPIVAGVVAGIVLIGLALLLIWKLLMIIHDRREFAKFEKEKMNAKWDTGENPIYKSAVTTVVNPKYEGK
Assay type: cell-based
Method: Binding inhibition is measured here as a concentration of peptide that inhibits one-half the binding between a standard number of Jurkat cells and a standard amount of CS-1 peptide bound to the surface of a microtiter plate well. Those concentrations are conveniently expressed as IC50 values, smaller numbers indicating a lower concentration required to inhibit 50 percent binding and therefore greater potency. Further specifics of this assay are provided hereinafter.
Jurkat cells (ATCC TIB 152), a human T lymphoblastic line, labeled with ^51 chromium were used to assay in vitro binding inhibition provided by various peptides discussed herein.
The plates were prepared as follows: The 25-mer CS-1 peptide (SEQ ID NO:5) dissolved at 0.5-1 μg/ml in a buffer of 0.1M NaHCO3 at pH 9.5 that also contained 10 μg/ml of bovine serum albumin (BSA) or a conjugate of the CS-1 peptide linked to ovalbumin (CS-1-OVA) dissolved at 1-2.5 μg/ml in the same buffer was used as the substrate. Each well of the microtiter plates was coated with 50 μl of substrate or buffer alone for controls. The wells were permitted to dry out completely and were then rinsed twice with PBS at pH 7.4. Non-specific binding sites of each well were then blocked using 200 μl per well of RPMI/1 percent BSA for two hours at room temperature. Both solid phase-affixed substrates provided similar results.
Jurkat cells (3-5×10^6 cells) were placed into a 15 ml FALCON™ round-bottom tube with a cap. The tube was centrifuged, and the extra medium was then removed.
Two hundred microliters of a ^51 Cr labeling solution were added to the centrifuged cells and maintained in contact with the cells for 90-120 minutes in a warm room. This procedure typically provides about 50,000-100,000 cpm/well with about 80-100 percent cell viability. Longer contact times provide a greater amount of labeling but lower cell viability.
The labeled cells were washed with (i) complete medium, (ii) 1 mM EDTA/PBS and then (iii) RPM1/1 percent BSA free of serum components. The cells were centrifuged after each washing. The cells were finally resuspended in serum-free RPMI/1 percent BSA at a concentration of 1×10^6 viable cells/ml, which provides a concentration that is diluted by one-half in the assay.
Cyclic inhibitor peptides were prepared as stock solutions at 20 mg/ml in DMSO in 1.5 ml cryogenic screwcap vials, and were stored at -70° C. Using FLOW™ round-bottom or V-bottom microtiter plates, the inhibitor peptides were prepared at twice the assay concentration in RPMI/1 percent BSA at 60 μl/well.
Four initial dilutions were typically used.
The ^51 Cr-labeled cells (1×10^6 cells at 60 μl/well) were then admixed with the diluted cyclic peptide solutions. The admixtures were maintained at room temperature (about 22° C.) for 30 minutes.
One hundred microliters of each inhibitor peptide/cell admixture were transferred to the substrate-coated wells. This was done in triplicate for each dilution. The resulting plates were incubated for 30 minutes at 37° C. and then washed gently three times with RPMI/1 percent BSA at 200 μl/well. Binding was observed microscopically, particularly after the second wash.
The bound cells were then lysed by the addition of a 0.5 percent solution of sodium dodecylsulfate in water at 100 μl/well. The resulting solutions were then processed for counting and calculation of IC50 values following usual procedures. Appropriate positive and negative controls were used with each plate so that the results of separate assays could be normalized and compared.
The potency data of Table 1 and Table 2 are so normalized. The absolute IC50 value for the peptide of SEQ ID NO:7 is 0.3 μM.

Going from `O=C(O)C[C@@H]1NC(=O)[C@@H](NC(=O)Cc2ccccc2)CSCCNC(=O)[C@H](Cc2ccccc2)NC1=O` [.phi.AcCDF--NHCH2 CH2 --] to `NC(=O)[C@@H]1CSSC[C@H](NC(=O)Cc2ccccc2)C(=O)N[C@@H](CC(=O)O)C(=O)N[C@@H](Cc2ccccc2)C(=O)N1` [compound 7] (PhAc-CDFC-NH2; disulfide 1-4), the “Relative Potency” value rises from 16 to 954.

`CC(C)C[C@H](N)C(=O)N[C@@H](CC(=O)O)C(=O)N[C@@H](Cc1ccccc1)C(N)=O` [LDF--NH2] (H-Leu-Asp-Phe-NH2) and `CC(C)C[C@H](N)C(=O)N[C@@H](CC(=O)O)C(=O)N[C@H](C(N)=O)C(C)C` [LDV--NH2, reference compound] (H-Leu-Asp-Val-NH2) are the same in “Relative Potency” value: 0 for the first, 0 for the second.

Compared with `CC1(C)SSC[C@@H](C(N)=O)NC(=O)[C@H](Cc2ccccc2)NC(=O)[C@H](CC(=O)O)NC(=O)[C@H]1NC(=O)Cc1ccccc1` [compound 14] (PhAc-[Pen]DFC-NH2; disulfide 1-4), `NC(=O)[C@@H]1CSSC[C@H](NC(=O)[C@@H](N)Cc2ccccc2)C(=O)N[C@@H](CC(=O)O)C(=O)N[C@@H](Cc2ccccc2)C(=O)N1` [compound 25] (H-FCDFC-NH2; disulfide 2-5) is lower in “Relative Potency” value: 94 for the first, 3 for the second.

Compared with `CC(C)C[C@@H]1NC(=O)[C@H](Cc2ccccc2)NC(=O)[C@@H](N)CSSC[C@@H](C(N)=O)NC(=O)[C@H]([C@@H](C)O)NC(=O)[C@H](CO)NC(=O)[C@@H]2CCCN2C(=O)[C@H](Cc2ccccc2)NC(=O)[C@H](CC(=O)O)NC1=O` [compound 15] (H-CFLDFPSTC-NH2; disulfide 1-9), `CC(C)C[C@@H]1NC(=O)[C@H](Cc2ccccc2)NC(=O)[C@@H](N)CSSC[C@@H](C(N)=O)NC(=O)[C@H](C(C)C)NC(=O)[C@H]([C@@H](C)O)NC(=O)[C@H](CO)NC(=O)[C@@H]2CCCN2C(=O)[C@H](Cc2ccccc2)NC(=O)[C@H](CC(=O)O)NC1=O` [compound 21] (H-CFLDFPSTVC-NH2; disulfide 1-10) is lower in “Relative Potency” value: 81 for the first, 19 for the second.

Compared with `CC(C)C[C@@H]1NC(=O)[C@H](Cc2ccccc2)NC(=O)[C@H](CCC(=O)O)NC(=O)[C@@H]2CCCN2C(=O)[C@@H](N)CSSC[C@@H](C(N)=O)NC(=O)[C@@H]2CCCN2C(=O)[C@H](Cc2ccccc2)NC(=O)[C@H](CC(=O)O)NC1=O` [compound 16] (H-CPEFLDFPC-NH2; disulfide 1-9), `CC(C)C[C@@H]1NC(=O)[C@H](Cc2ccccc2)NC(=O)[C@H](CCC(=O)O)NC(=O)[C@@H]2CCCN2C(=O)[C@@H](N)CSSC[C@@H](C(N)=O)NC(=O)[C@H](CO)NC(=O)[C@@H]2CCCN2C(=O)[C@H](Cc2ccccc2)NC(=O)[C@H](CC(=O)O)NC1=O` [compound 19] (H-CPEFLDFPSC-NH2; disulfide 1-10) is lower in “Relative Potency” value: 31 for the first, 6 for the second.

Going from `CC(=O)N[C@@H](Cc1ccccc1)C(=O)N[C@H]1CSSC[C@@H](C(N)=O)NC(=O)[C@H](Cc2ccccc2)NC(=O)[C@H](CC(=O)O)NC1=O` [compound 17] (Ac-FCDFC-NH2; disulfide 2-5) to `CC(=O)N[C@@H](Cc1ccccc1)C(=O)N[C@H]1CSSC[C@@H](C(=O)N2CCC[C@H]2C(N)=O)NC(=O)[C@H](CC(=O)O)NC1=O` [compound 29] (Ac-FCDCP-NH2; disulfide 2-4), the “Relative Potency” value falls from 53 to 1.

Going from `CC(=O)N[C@@H](Cc1ccccc1)C(=O)N[C@@H](CS)C(=O)N[C@@H](CC(=O)O)C(=O)N[C@@H](Cc1ccccc1)C(=O)N[C@@H](CS)C(N)=O` [compound 18] (Ac-FCDFC-NH2) to `CC(C)C[C@@H]1NC(=O)[C@H](Cc2ccccc2)NC(=O)[C@H](CCC(=O)O)NC(=O)[C@@H](N)CSSC[C@@H](C(N)=O)NC(=O)[C@@H]2CCCN2C(=O)[C@H](Cc2ccccc2)NC(=O)[C@H](CC(=O)O)NC1=O` [compound 20] (H-CEFLDFPC-NH2; disulfide 1-8), the “Relative Potency” value falls from 41 to 19.

Compared with `CC(C)C[C@@H]1NC(=O)[C@H](Cc2ccccc2)NC(=O)[C@H](CCC(=O)O)NC(=O)[C@@H](N)CSSC[C@@H](C(N)=O)NC(=O)[C@H]([C@@H](C)O)NC(=O)[C@H](CO)NC(=O)[C@@H]2CCCN2C(=O)[C@H](Cc2ccccc2)NC(=O)[C@H](CC(=O)O)NC1=O` [compound 22] (H-CEFLDFPSTC-NH2; disulfide 1-10), `CC(C)C[C@@H]1NC(=O)[C@H](Cc2ccccc2)NC(=O)[C@H](CCC(=O)O)NC(=O)[C@@H](N)CSSC[C@@H](C(N)=O)NC(=O)[C@H](CO)NC(=O)[C@@H]2CCCN2C(=O)[C@H](Cc2ccccc2)NC(=O)[C@H](CC(=O)O)NC1=O` [compound 24] (H-CEFLDFPSC-NH2; disulfide 1-9) is lower in “Relative Potency” value: 9 for the first, 6 for the second.

Compared with `CC(C)C[C@@H]1NC(=O)[C@H](Cc2ccccc2)NC(=O)[C@H](CCC(=O)O)NC(=O)[C@@H]2CCCN2C(=O)CNC(=O)[C@@H](N)CSSC[C@@H](C(N)=O)NC(=O)[C@H](Cc2ccccc2)NC(=O)[C@H](CC(=O)O)NC1=O` [compound 23] (H-CGPEFLDFC-NH2; disulfide 1-9), `CC(C)C[C@@H]1NC(=O)[C@@H](N)CSSC[C@@H](C(N)=O)NC(=O)[C@H](Cc2ccccc2)NC(=O)[C@H](CC(=O)O)NC1=O` [compound 28] (H-CLDFC-NH2; disulfide 1-5) is lower in “Relative Potency” value: 9 for the first, 1 for the second.

With `CC(=O)N[C@@H](CC(C)C)C(=O)N[C@@H](CC(=O)O)C(=O)N[C@@H](Cc1ccccc1)C(N)=O` [AcLDF--NH2] (Ac-Leu-Asp-Phe-NH2) the “Relative Potency” value was < 1.
`CC(=O)N[C@@H](CC(C)C)C(=O)N[C@@H](CC(=O)O)C(=O)N[C@H](C(N)=O)C(C)C` [AcLDV--NH2, reference compound] (Ac-Leu-Asp-Val-NH2) was tested, and the “Relative Potency” value was < 1.

Same assay, conditions: Table 2; normalized, relative to standard peptide of SEQ ID NO:6

`CC(=O)N[C@H]1CSSC[C@@H](C(=O)N2CCC[C@@H]2C(N)=O)NC(=O)[C@H](CC(=O)O)NC(=O)[C@H](CC(C)C)NC1=O` (Ac-CLDC[dP]-NH2; disulfide 1-4) and `CC(C)C[C@@H]1NC(=O)[C@H](Cc2ccccc2)NC(=O)[C@@H](N)CSSC[C@@H](C(=O)N2CCC[C@H]2C(N)=O)NC(=O)[C@H](CC(=O)O)NC1=O` (H-CFLDCP-NH2; disulfide 1-5) are the same in “Relative Potency” value: 0 for the first, 0 for the second.

First: CC(C)C[C@@H]1NC(=O)[C@H](Cc2ccccc2)NC(=O)[C@H](CCC(=O)O)NC(=O)[C@@H]2CCCN2C(=O)[C@@H](N)CSSC[C@@H](C(N)=O)NC(=O)[C@H](Cc2ccccc2)NC(=O)[C@H](CC(=O)O)NC1=O (H-CPEFLDFC-NH2; disulfide 1-8)
Second: CC(C)C[C@@H]1NC(=O)[C@H](Cc2ccccc2)NC(=O)[C@@H](N)CSSC[C@@H](C(N)=O)NC(=O)[C@H]([C@@H](C)O)NC(=O)[C@H](CO)NC(=O)[C@@H]2CCCN2C(=O)[C@H](Cc2ccccc2)NC(=O)[C@H](CC(=O)O)NC1=O [SEQ ID NO:15, CFLDFPSTC--NH2] (H-CFLDFPSTC-NH2; disulfide 1-9)
The “Relative Potency” value of the first is lower: 56.3 for the first, 81.4 for the second.

With `O=C(O)C[C@@H]1NC(=O)[C@@H](NC(=O)Cc2ccccc2)CSCCNC(=O)[C@H](Cc2ccccc2)NC1=O` [.phi.AcCDF--NHCH2 CH2 --] the “Relative Potency” value was 16.1.

With `CC(=O)N[C@H]1CSSC[C@@H](C(N)=O)NC(=O)[C@H](Cc2ccccc2)NC(=O)[C@H](CC(=O)O)NC(=O)[C@H](CC(C)C)NC1=O` (Ac-CLDFC-NH2; disulfide 1-5) the “Relative Potency” value was “.91”.

Same assay, conditions: XLDFp = 1

For `CC(C)C[C@H](NC(=O)Cc1ccccc1)C(=O)N[C@@H](CC(=O)O)C(=O)N[C@@H](Cc1ccccc1)C(=O)N1CCC[C@@H]1C(N)=O` [XLDFp, .phi.Ac-LeuAspPhe-D-Pro-NH2, reference compound] (PhAc-LDF[dP]-NH2), the “CS-1 binding inhibition potencies relative to each other” value was ~1.

Same assay, conditions: times more potent than standard 10-mer

For `CC(=O)N[C@@H](CC(C)C)C(=O)N[C@@H](CC(=O)O)C(=O)N[C@H](C(N)=O)C(C)C` [AcLDV--NH2, reference compound] (Ac-Leu-Asp-Val-NH2), the “inhibition potency relative to the Standard 10-mer of SEQ ID NO:6” value was “about 1”.
`CC(C)C[C@H](N)C(=O)N[C@@H](CC(=O)O)C(=O)N[C@H](C(N)=O)C(C)C` [LDV--NH2, reference compound] (H-Leu-Asp-Val-NH2) was tested, and the “inhibition potency relative to the Standard 10-mer of SEQ ID NO:6” value was “zero”.
For `CC(C)C[C@@H]1NC(=O)[C@H](Cc2ccccc2)NC(=O)[C@@H](N)CSSC[C@@H](C(N)=O)NC(=O)[C@@H]2CCCN2C(=O)[C@H](Cc2ccccc2)NC(=O)[C@H](CC(=O)O)NC1=O` [SEQ ID NO:10, CFLDFPC--NH2] (H-CFLDFPC-NH2; disulfide 1-7), the “inhibition potency relative to the Standard 10-mer of SEQ ID NO:6” value was “about 253”.
With `CC(C)C[C@H](NC(=O)Cc1ccccc1)C(=O)N[C@@H](CC(=O)O)C(=O)N[C@@H](Cc1ccccc1)C(=O)N1CCC[C@@H]1C(N)=O` [XLDFp, .phi.Ac-LeuAspPhe-D-Pro-NH2, reference compound] (PhAc-LDF[dP]-NH2) the “inhibition potency relative to the Standard 10-mer of SEQ ID NO:6” value was ~313.
